Experiment [1] has as its target Serine/threonine-protein kinase pim-1 (Homo sapiens, UniProt P11309). The settings on record: at 10 µM.
In experiment [2] the target is Mitogen-activated protein kinase 1 (Homo sapiens, UniProt P28482). The experiment can be described thus: Selectivity interaction (Millipore kinase profiler) EUB0000124b MAPK1. The following applies: at 10 µM.
Experiment [3] has as its target Serine/threonine-protein kinase 32B (Homo sapiens) (UniProt Q9NY57). The experiment can be described thus: Selectivity interaction (KinomeScan (DiscoverX)) EUB0000092b STK32B. The settings on record: at 10 µM.
Experiment [4] has as its target Serine/threonine-protein kinase PAK 1 (Homo sapiens) (UniProt Q13153). The experiment can be described thus: Selectivity interaction (KinomeScan (DiscoverX)) EUB0000655a PAK1. The settings on record: at 10 µM.
In experiment [5] the target is T1, Mitogen-activated protein kinase kinase kinase 15 (Homo sapiens) (UniProt Q6ZN16).
T1 sequence (whole entry): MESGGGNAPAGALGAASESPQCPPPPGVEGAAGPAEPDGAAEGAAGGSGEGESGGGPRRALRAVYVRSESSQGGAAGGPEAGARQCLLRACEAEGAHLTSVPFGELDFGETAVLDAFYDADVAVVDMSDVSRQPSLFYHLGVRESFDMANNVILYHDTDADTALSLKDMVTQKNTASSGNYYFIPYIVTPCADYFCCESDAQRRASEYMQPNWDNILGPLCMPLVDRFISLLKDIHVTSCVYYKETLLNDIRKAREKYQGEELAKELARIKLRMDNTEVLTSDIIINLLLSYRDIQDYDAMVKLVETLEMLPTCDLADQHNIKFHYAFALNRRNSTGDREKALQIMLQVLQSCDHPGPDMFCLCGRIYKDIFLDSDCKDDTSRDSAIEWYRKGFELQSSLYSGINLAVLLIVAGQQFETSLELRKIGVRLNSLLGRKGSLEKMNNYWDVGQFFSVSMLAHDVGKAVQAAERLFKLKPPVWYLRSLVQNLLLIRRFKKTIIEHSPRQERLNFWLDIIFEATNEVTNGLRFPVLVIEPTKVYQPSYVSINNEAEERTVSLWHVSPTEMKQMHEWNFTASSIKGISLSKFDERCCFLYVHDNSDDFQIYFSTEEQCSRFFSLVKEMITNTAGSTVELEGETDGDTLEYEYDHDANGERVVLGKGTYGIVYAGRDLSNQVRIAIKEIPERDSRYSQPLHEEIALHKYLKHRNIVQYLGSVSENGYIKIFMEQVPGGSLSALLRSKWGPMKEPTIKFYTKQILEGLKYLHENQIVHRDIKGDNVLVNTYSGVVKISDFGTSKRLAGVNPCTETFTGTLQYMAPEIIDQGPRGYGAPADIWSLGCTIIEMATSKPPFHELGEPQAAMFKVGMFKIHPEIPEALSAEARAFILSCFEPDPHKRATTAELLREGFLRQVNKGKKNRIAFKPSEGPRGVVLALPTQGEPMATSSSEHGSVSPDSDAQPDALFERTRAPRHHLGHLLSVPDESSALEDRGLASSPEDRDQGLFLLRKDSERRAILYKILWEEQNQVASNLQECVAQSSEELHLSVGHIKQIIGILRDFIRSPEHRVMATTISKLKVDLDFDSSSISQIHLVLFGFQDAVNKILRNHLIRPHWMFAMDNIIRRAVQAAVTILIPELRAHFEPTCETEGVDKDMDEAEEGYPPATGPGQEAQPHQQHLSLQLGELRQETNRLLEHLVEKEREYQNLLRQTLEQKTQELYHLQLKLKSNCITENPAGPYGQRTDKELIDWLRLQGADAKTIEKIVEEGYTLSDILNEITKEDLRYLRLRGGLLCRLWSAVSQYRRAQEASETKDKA
The experiment can be described thus: Selectivity interaction (KinomeScan (DiscoverX)) EUB0000655a MAP3K15. The settings on record: at 10 µM.

Experiment [6] has as its target 5-hydroxytryptamine receptor 1B (Homo sapiens) (UniProt P28222). The experiment can be described thus: Selectivity interaction (Panel of kinases, GPCRs, ion channels and transporters (enzymatic assay)) EUB0000223bCl HTR1B.
The target of experiment [7] is Mitogen-activated protein kinase kinase kinase kinase 4 (Homo sapiens, UniProt O95819). The experiment can be described thus: Selectivity interaction (Kinase panel (Z-LYTE Assay)) EUB0001632a MAP4K4. The settings on record: at 10 µM.
Mitogen-activated protein kinase kinase kinase kinase 4, sequence (O95819 2-1239 limits assumed): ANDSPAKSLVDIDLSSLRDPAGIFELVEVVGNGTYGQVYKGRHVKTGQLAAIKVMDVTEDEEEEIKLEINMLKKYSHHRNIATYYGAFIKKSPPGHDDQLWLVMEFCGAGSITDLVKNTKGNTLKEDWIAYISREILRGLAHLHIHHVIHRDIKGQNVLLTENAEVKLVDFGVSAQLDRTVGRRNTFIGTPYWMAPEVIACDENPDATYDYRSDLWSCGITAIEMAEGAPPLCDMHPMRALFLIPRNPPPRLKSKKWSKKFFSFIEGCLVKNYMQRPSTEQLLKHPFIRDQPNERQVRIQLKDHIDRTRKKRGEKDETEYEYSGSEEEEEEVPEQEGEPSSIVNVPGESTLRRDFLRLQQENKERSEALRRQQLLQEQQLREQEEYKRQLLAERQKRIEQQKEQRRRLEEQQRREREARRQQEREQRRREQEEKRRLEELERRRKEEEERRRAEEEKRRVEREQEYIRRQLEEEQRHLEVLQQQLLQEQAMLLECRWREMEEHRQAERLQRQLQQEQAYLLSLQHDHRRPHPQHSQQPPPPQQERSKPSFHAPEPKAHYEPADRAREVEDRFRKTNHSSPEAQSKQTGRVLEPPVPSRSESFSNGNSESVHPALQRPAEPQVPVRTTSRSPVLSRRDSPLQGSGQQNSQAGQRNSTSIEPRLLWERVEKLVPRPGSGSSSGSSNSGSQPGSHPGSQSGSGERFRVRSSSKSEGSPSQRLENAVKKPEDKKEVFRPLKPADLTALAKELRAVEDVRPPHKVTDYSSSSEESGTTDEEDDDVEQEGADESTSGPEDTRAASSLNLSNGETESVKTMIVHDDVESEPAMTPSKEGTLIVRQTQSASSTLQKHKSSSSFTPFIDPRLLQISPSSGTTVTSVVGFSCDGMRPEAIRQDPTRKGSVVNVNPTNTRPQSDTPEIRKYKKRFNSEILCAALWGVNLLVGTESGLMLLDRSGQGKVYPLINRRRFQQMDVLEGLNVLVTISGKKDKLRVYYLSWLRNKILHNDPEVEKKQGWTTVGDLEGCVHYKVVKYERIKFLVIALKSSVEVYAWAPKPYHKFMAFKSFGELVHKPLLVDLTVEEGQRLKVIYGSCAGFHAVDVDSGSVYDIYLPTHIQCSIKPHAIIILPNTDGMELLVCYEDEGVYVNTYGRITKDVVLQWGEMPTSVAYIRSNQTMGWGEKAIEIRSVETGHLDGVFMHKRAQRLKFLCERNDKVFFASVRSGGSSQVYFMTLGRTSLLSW
Experiment [8] concerns the target Mitogen-activated protein kinase 14 (Homo sapiens, UniProt Q16539). The experiment can be described thus: Selectivity interaction (Kinase panel (Z-LYTE Assay)) EUB0001632a MAPK14. The settings on record: at 10 µM.
Experiment [9] addresses T2, Serine/threonine-protein kinase Nek5 (Homo sapiens) (UniProt Q6P3R8).
T2 sequence (whole entry): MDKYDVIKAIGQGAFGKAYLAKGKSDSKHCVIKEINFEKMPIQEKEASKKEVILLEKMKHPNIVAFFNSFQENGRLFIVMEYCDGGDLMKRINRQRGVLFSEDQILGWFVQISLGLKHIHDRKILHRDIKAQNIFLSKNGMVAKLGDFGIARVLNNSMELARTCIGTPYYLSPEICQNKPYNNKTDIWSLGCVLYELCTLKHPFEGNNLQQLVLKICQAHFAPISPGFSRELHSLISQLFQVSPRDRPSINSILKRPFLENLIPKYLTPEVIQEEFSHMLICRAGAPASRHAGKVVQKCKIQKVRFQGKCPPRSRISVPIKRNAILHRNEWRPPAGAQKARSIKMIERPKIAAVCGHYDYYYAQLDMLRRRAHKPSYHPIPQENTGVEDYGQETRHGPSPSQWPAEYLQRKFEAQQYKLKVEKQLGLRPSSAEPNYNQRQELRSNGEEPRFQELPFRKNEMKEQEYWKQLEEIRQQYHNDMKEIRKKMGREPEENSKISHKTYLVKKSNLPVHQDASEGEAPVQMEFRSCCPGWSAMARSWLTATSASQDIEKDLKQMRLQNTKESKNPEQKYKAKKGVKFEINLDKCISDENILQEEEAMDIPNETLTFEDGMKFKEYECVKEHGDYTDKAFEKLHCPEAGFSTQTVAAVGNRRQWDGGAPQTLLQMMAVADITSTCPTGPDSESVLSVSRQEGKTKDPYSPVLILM
The experiment can be described thus: Selectivity interaction (KinomeScan (DiscoverX)) EUB0000607a NEK5. The following applies: at 10 µM.

The target of experiment [10] is Serine/threonine-protein kinase 26 (Homo sapiens, UniProt Q9P289). The experiment can be described thus: Selectivity interaction (ActivX KiNativ screen (kinase selectivity in THP-1 cell lysates)) EUB0000639a STK26. It counts as subcellular. The following applies: lysate, at 5 µM.
Serine/threonine-protein kinase 26, sequence (Q9P289 2-416 limits assumed): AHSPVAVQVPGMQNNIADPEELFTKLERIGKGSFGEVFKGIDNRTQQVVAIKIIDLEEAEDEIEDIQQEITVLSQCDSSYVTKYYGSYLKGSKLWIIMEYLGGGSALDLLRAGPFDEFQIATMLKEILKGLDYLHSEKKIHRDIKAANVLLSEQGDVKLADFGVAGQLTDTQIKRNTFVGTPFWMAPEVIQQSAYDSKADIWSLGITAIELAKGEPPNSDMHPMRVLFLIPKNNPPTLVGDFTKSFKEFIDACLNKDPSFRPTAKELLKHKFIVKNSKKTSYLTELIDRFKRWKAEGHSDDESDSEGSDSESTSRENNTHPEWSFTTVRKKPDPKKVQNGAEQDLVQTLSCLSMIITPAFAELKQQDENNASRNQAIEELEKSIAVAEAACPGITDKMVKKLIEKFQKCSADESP
Experiment [11] concerns the target Protein kinase C alpha type (Homo sapiens, UniProt P17252). The experiment can be described thus: Selectivity interaction (Kinase panel (literature)) EUB0001199aCl PRKCA. The following applies: at 1 µM.

5-hydroxytryptamine receptor 1B (Homo sapiens), sequence (P28222 whole entry): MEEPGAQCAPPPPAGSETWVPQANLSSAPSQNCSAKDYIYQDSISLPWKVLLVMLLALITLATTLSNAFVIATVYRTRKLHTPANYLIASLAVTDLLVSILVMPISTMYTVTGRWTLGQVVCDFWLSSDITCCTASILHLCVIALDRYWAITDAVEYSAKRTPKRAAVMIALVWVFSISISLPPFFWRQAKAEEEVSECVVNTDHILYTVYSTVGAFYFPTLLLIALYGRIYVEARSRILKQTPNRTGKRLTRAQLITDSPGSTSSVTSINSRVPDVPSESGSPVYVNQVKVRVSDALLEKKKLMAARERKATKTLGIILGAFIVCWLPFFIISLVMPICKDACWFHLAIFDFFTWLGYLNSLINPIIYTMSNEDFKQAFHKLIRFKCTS
Mitogen-activated protein kinase 1, sequence (P28482 whole entry): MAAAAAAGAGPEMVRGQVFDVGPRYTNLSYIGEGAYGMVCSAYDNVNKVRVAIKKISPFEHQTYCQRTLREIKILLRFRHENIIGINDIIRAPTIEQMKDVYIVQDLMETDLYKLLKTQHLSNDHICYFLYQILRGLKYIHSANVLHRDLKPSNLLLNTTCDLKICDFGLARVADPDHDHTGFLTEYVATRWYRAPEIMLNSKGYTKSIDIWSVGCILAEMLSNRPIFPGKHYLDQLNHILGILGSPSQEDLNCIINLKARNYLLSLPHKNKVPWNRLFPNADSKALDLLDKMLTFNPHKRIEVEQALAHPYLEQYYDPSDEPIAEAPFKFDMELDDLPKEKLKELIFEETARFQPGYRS
Serine/threonine-protein kinase PAK 1 (Homo sapiens), sequence (Q13153 whole entry): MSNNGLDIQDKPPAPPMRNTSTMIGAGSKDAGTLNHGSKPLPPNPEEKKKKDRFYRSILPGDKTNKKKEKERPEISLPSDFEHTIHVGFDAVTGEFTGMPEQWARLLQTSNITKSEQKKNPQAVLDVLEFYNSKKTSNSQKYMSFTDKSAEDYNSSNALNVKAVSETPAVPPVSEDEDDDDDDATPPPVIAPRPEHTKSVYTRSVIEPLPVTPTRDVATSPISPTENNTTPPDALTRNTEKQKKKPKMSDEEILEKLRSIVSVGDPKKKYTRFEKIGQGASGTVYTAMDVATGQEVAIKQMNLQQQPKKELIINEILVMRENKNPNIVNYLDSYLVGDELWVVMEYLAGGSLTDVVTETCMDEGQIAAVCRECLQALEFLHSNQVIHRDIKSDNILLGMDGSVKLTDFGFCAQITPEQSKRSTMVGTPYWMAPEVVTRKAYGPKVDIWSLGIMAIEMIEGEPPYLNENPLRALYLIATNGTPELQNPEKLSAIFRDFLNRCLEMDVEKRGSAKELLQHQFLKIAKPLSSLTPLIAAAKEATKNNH
Mitogen-activated protein kinase 14, sequence (Q16539 whole entry): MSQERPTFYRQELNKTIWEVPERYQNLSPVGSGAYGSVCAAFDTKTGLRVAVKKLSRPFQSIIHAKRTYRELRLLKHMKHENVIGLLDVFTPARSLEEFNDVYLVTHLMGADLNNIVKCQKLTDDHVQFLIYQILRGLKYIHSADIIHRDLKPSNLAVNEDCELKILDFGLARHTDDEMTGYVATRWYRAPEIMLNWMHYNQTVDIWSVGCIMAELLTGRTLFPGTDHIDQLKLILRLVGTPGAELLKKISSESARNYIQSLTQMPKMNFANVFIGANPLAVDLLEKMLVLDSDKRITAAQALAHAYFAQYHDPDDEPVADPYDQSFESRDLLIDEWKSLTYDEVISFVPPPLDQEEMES
Serine/threonine-protein kinase pim-1, sequence (P11309 whole entry, looked up): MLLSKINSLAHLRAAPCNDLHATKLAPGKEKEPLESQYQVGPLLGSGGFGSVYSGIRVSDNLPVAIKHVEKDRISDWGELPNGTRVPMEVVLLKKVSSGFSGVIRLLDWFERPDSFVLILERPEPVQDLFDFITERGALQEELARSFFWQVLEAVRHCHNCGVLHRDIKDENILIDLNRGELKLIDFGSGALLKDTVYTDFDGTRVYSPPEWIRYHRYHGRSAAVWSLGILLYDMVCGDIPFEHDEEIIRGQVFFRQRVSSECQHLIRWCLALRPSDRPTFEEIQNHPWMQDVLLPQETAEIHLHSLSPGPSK
Serine/threonine-protein kinase 32B (Homo sapiens), sequence (Q9NY57 whole entry): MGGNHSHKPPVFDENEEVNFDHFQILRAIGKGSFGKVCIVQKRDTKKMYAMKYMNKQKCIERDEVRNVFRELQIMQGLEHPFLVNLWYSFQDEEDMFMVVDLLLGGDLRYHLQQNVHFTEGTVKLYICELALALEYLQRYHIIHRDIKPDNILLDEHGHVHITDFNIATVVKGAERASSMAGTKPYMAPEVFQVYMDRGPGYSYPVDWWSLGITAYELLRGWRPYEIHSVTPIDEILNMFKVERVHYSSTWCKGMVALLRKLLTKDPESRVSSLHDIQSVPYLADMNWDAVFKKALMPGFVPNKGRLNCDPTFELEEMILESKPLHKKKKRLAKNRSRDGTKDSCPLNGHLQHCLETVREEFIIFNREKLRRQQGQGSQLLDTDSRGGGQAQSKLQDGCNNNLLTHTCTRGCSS

For the molecule `CCN(CC)CCCCNc1ncc2cc(-c3cc(OC)cc(OC)c3)c(NC(=O)NC(C)(C)C)nc2n1`, in experiment [1], the % of control was found to be 100%.
On to `CC(=O)Nc1cccc(-n2c(=O)n(C3CC3)c(=O)c3c(Nc4ccc(I)cc4F)n(C)c(=O)c(C)c32)c1`, for which the % of control in [2] turned out to be 108%.
As to `CCC(=O)N1CCN(c2ccc(-n3c(=O)ccc4cnc5ccc(-c6cnc7ccccc7c6)cc5c43)cc2C(F)(F)F)CC1`, the % of control in experiment [3] was determined as 87%.
In the case of `CN(C)CCOc1ccc(-c2nc(-c3ccncc3)c(-c3ccc4c(c3)CC/C4=N\O)[nH]2)cc1`, the % of control amounted to 87% in [4] and 100% in [5].
As for `COc1cc(C(=O)N2CC[C@@H](O)[C@@H](N)C2)cc2nc(-c3cc4ccccc4n3CC3CC3)n(C)c12`, the pXC50 in experiment [6] was less than 4.5 M.
As for `Cn1cc(-n2cnc3c(NCc4nc5cc(Cl)c(Cl)cc5[nH]4)nc(N4CCOCC4)nc32)cn1`, the % of control is 4.98% in experiment [7] and -3.84% in experiment [8].
With `CNC(=O)Nc1ccc(-c2nc(N3CC4CCC(C3)O4)c3cnn(C4CCC5(CC4)OCCO5)c3n2)cc1`, the % of control in experiment [9] was 81%.
Take `CC[C@@H]1[C@H](F)C(=O)N[C@@H]1COc1nccc2cc(C(N)=O)c(OC)cc12` [ZIMLOVISERTIB]: in [10], the % of inhibition turned out to be 21.8%.
With `CN1Cc2nccc(-c3cn(C)nc3-c3ccc(F)cc3)c2C1=O`, the % of inhibition in experiment [11] is -1%.
